Measurements taken from US7994140B2, “Classes of compounds that interact with GPCRs” (Alchemia Limited, priority 2002, dated 2011).

Each compound was assayed against T1, MC4 (Homo sapiens, UniProt P32245) (assay: GPCR radioligand binding (RLB) assay, melanocortin MC4, [125I]NDP-αMSH). Conditions: 10 micromolar compound; recombinant human receptor membranes (HEK 293).
T1 construct: purchased Perkin Elmer BioSignal; host or cells: HEK 293
Procedure, shortened: (§1)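 Competition binding against radioligand ([125I]NDP-αMSH for MC4, [125I]SST-14 for SST5) on membranes of HEK 293 cells carrying the human receptor; buffer and incubation time optimized per receptor. Filtration through 0.5% PEI-treated glass fiber, washing, then scintillation counting.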

T1 sequence (P32245 whole entry): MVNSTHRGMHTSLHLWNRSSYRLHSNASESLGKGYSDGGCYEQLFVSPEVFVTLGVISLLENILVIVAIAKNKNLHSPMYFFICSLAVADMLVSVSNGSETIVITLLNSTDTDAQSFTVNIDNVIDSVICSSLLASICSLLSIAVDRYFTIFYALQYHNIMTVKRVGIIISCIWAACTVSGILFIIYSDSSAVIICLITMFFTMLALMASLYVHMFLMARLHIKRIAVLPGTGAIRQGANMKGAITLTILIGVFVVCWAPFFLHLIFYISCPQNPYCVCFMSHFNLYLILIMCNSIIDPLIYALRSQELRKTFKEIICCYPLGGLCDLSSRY

Row | SMILES | MC4 inhibition at 10 micromolar
1 | CSC1OC(COCc2ccc(-c3ccccc3)cc2)C(O)C(OCc2ccccc2)C1NC(=O)CCNC(=N)N (stereo not shown) [Compound 134] | + (Indicates inhibition greater than . . . 50%)
2 | COC1C(O)C(COCc2ccc3ccccc3c2)OC(OCc2ccccc2)C1NC(=O)CNC(=N)N (stereo not shown) [Compound 80] | + (Indicates inhibition greater than . . . 50%)
3 | CSC1OC(COCc2ccc3ccccc3c2)C(O)C(OCc2ccc(-c3ccccc3)cc2)C1NC(=O)CCCNC(=N)N (stereo not shown) [Compound 190] | + (Indicates inhibition greater than . . . 50%)
4 | CSC1OC(COCc2ccc3ccccc3c2)C(O)C(OCc2ccc(Cl)cc2)C1NC(=O)CCCNC(=N)N (stereo not shown) [Compound 166] | + (Indicates inhibition greater than . . . 50%)
5 | CO[C@H]1[C@H](O)[C@@H](COCc2ccc(-c3ccccc3)cc2)OC(OCc2ccc(-c3ccccc3)cc2)[C@@H]1NC(=O)CCNC(=N)N (stereo partly shown) [Compound 57] | + (Indicates inhibition greater than . . . 50%)
6 | CSC1OC(COCc2ccc(Cl)cc2)C(O)C(OCc2ccc(-c3ccccc3)cc2)C1NC(=O)CCCNC(=N)N (stereo not shown) [Compound 178] | + (Indicates inhibition greater than . . . 50%)
7 | COC[C@H]1OC(OCc2ccc(-c3ccccc3)cc2)[C@H](NC(=O)CCNC(=N)N)[C@@H](OCc2ccc(Cl)cc2)[C@@H]1O (stereo partly shown) [Compound 32] | + (Indicates inhibition greater than . . . 50%)
8 | CSC1OC(COCc2ccccc2)C(O)C(OCc2ccccc2)C1NC(=O)CCN (stereo not shown) [Compound 121] | + (Indicates inhibition greater than . . . 50%)
9 | CSC1OC(COCc2ccc(Cl)cc2)C(O)C(OCc2ccc3ccccc3c2)C1NC(=O)CCN (stereo not shown) [Compound 199] | + (Indicates inhibition greater than . . . 50%)
10 | COC[C@H]1OC(OCc2ccc(-c3ccccc3)cc2)[C@H](NC(=O)CCCNC(=N)N)[C@@H](OCc2ccc(-c3ccccc3)cc2)[C@@H]1O (stereo partly shown) [Compound 29] | + (Indicates inhibition greater than . . . 50%)
11 | CSC1OC(COCc2ccc(-c3ccccc3)cc2)C(O)C(OCc2ccc3ccccc3c2)C1NC(=O)CCCN (stereo not shown) [Compound 207] | + (Indicates inhibition greater than . . . 50%)
12 | COC[C@H]1OC(OCc2ccc(-c3ccccc3)cc2)[C@H](NC(=O)CNC(=N)N)[C@@H](OCc2ccc(-c3ccccc3)cc2)[C@@H]1O (stereo partly shown) [Compound 1] | + (Indicates inhibition greater than . . . 50%)

Same assay, conditions: 10 micromolar; Example Library 4

Row | SMILES | MC4 inhibition at 10 micromolar
13 | COCC1OC(OCc2ccc(Cl)cc2)C(NC(=O)CNC(=N)N)C(OCc2ccc3ccccc3c2)C1O (stereo not shown) [Compound 255] | + (Indicates inhibition greater than . . . 50%)
14 | COCC1OC(OCc2ccccc2)C(NC(=O)CCNC(=N)N)C(OCc2ccc(-c3ccccc3)cc2)C1O (stereo not shown) [Compound 228] | + (Indicates inhibition greater than . . . 50%)

Each compound was assayed against T2, SST5 (Homo sapiens, UniProt P35346) (assay: GPCR radioligand binding (RLB) assay, somatostatin SST5, [125I]SST-14). Conditions: 10 micromolar compound; recombinant human receptor membranes (HEK 293).
T2 construct: purchased Perkin Elmer BioSignal; host or cells: HEK 293
T2 sequence (P35346 whole entry): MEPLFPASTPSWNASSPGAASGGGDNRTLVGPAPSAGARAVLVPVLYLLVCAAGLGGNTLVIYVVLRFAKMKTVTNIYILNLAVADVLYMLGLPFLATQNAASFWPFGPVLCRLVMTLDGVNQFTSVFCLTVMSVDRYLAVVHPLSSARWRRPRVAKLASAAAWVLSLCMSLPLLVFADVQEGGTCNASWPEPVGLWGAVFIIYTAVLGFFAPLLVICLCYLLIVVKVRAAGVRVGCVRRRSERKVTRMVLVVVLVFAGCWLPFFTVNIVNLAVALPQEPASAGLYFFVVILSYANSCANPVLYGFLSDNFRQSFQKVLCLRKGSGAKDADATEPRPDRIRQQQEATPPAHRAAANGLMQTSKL
Procedure, shortened: as §1

Row | SMILES | SST5 inhibition at 10 micromolar
15 | CSC1OC(COCc2ccc(-c3ccccc3)cc2)C(O)C(OCc2ccccc2)C1NC(=O)CCNC(=N)N (stereo not shown) [Compound 134] | + (Indicates inhibition greater than . . . 50%)
16 | COC1C(O)C(COCc2ccc3ccccc3c2)OC(OCc2ccccc2)C1NC(=O)CNC(=N)N (stereo not shown) [Compound 80] | + (Indicates inhibition greater than . . . 50%)
17 | CSC1OC(COCc2ccc3ccccc3c2)C(O)C(OCc2ccc(-c3ccccc3)cc2)C1NC(=O)CCCNC(=N)N (stereo not shown) [Compound 190] | + (Indicates inhibition greater than . . . 50%)
18 | CSC1OC(COCc2ccc3ccccc3c2)C(O)C(OCc2ccc(Cl)cc2)C1NC(=O)CCCNC(=N)N (stereo not shown) [Compound 166] | + (Indicates inhibition greater than . . . 50%)
19 | CO[C@H]1[C@H](O)[C@@H](COCc2ccc(-c3ccccc3)cc2)OC(OCc2ccc(-c3ccccc3)cc2)[C@@H]1NC(=O)CCNC(=N)N (stereo partly shown) [Compound 57] | + (Indicates inhibition greater than . . . 50%)
20 | CSC1OC(COCc2ccc(Cl)cc2)C(O)C(OCc2ccc(-c3ccccc3)cc2)C1NC(=O)CCCNC(=N)N (stereo not shown) [Compound 178] | + (Indicates inhibition greater than . . . 50%)
21 | COC[C@H]1OC(OCc2ccc(-c3ccccc3)cc2)[C@H](NC(=O)CCNC(=N)N)[C@@H](OCc2ccc(Cl)cc2)[C@@H]1O (stereo partly shown) [Compound 32] | + (Indicates inhibition greater than . . . 50%)
22 | CSC1OC(COCc2ccccc2)C(O)C(OCc2ccccc2)C1NC(=O)CCN (stereo not shown) [Compound 121] | + (Indicates inhibition greater than . . . 50%)
23 | CSC1OC(COCc2ccc(Cl)cc2)C(O)C(OCc2ccc3ccccc3c2)C1NC(=O)CCN (stereo not shown) [Compound 199] | + (Indicates inhibition greater than . . . 50%)
24 | COC[C@H]1OC(OCc2ccc(-c3ccccc3)cc2)[C@H](NC(=O)CCCNC(=N)N)[C@@H](OCc2ccc(-c3ccccc3)cc2)[C@@H]1O (stereo partly shown) [Compound 29] | + (Indicates inhibition greater than . . . 50%)
25 | CSC1OC(COCc2ccc(-c3ccccc3)cc2)C(O)C(OCc2ccc3ccccc3c2)C1NC(=O)CCCN (stereo not shown) [Compound 207] | + (Indicates inhibition greater than . . . 50%)
26 | COC[C@H]1OC(OCc2ccc(-c3ccccc3)cc2)[C@H](NC(=O)CNC(=N)N)[C@@H](OCc2ccc(-c3ccccc3)cc2)[C@@H]1O (stereo partly shown) [Compound 1] | + (Indicates inhibition greater than . . . 50%)

Same assay, conditions: 10 micromolar; Example Library 4

Row | SMILES | SSTS inhibition at 10 micromolar
27 | COCC1OC(OCc2ccc(Cl)cc2)C(NC(=O)CNC(=N)N)C(OCc2ccc3ccccc3c2)C1O (stereo not shown) [Compound 255] | + (Indicates inhibition greater than . . . 50%)
28 | COCC1OC(OCc2ccccc2)C(NC(=O)CCNC(=N)N)C(OCc2ccc(-c3ccccc3)cc2)C1O (stereo not shown) [Compound 228] | + (Indicates inhibition greater than . . . 50%)
